# Results as given in patent US9340590B2 (priority 2011, dated 2016).
# Assays:
# [1] = test system: mechanical hyperalgesia; conditions: rat, in vivo; cited from earlier work
# [2] = test system: C-fiber compound action potential; conditions: cited from earlier work
# [3] = rat, in vivo, 0.1 mg/kg; cited from earlier work
# [4] = test system: NaV1.7; conditions: read-out: EC50, impairs fast inactivation; cited from earlier work
# [5] = test system: veratridine-induced spontaneous nociceptive behaviors in male CD-1 mice; conditions: mouse, in vivo
compound,measurement,setting,value
"YCQKWMWTCDSERKCCEGMVCRLWCKKKLW [ProTx-II, YCQKWMWTCDSERKCCEGMVCRLWCKKKLW]",efficacy in a mechanical hyperalgesia study,[1],not efficacious
same,C-fiber compound action potential,[2],completely blocked
same,action potential propagation,[2],little effect
same,tolerability in rats,[3],lethal
GVRDAYIADDKNCVYTCASNGYCNTECTKNGAESGYCQWIGRYGNACWCIKLPDEVPIRIPGKCR [OD1],EC50,[4],4.5 nM
"Cc1cccc(C)c1OCC(C)N (stereo not drawn) [mexiletine, reference compound]",veratridine-induced paw lifting behavior,[5],significantly reversed
